Laboratory results published in patent publication US20180298010A1, “PRMT5 INHIBITORS AND USES THEREOF” (Epizyme, Inc., priority 2012, published 2018).

These molecules were tested against T1, PRMT5/MEP50 (Homo sapiens, UniProt O14744) (assay: PRMT5 Biochemical Assay (PRMT5/MEP50 enzyme assay on peptide substrate, 3H-SAM Flashplate)).
T1 construct: Flag-PRMT5; 6His-MEP50
Source text: General Materials. S-adenosylmethionine (SAM), S-adenosylhomocysteine (SAH), bicine, KCl, Tween20, dimethylsulfoxide (DMSO), bovine skin gelatin (BSG), and Tris(2-carboxyethyl)phosphine hydrochloride solution (TCEP) were purchased from Sigma-Aldrich at the highest level of purity possible. ^3H-SAM was purchase from American Radiolabeled Chemicals with a specific activity of 80 Ci/mmol. 384-well streptavidin Flashplates were purchased from PerkinElmer.
Substrates. Peptide representative of human histone H4 residues 1-15 was synthesized with a C-terminal linker-affinity tag motif and a C-terminal amide cap by 21st Century Biochemicals. The peptide was high high-perfomance liquid chromatography (HPLC) purified to greater than 95% purity and confirmed by liquid chromatography mass spectrometry (LC-MS). The sequence was Ac-[…][K-Biot]-amide (SEQ ID NO.:3).
Molecular Biology: Full-length human PRMT5 (NM_006109.3) transcript variant 1 clone was amplified from a fetal brain cDNA library, incorporating flanking 5′ sequence encoding a FLAG tag ([…]) (SEQ ID NO.:4) fused directly to Ala 2 of PRMT5. Full-length human MEP50 (NM_024102) clone was amplified from a human testis cDNA library incorporating a 5′ sequence encoding a 6-histidine tag (MHHHHHH) (SEQ ID NO.:5) fused directly to Arg 2 of MEP50. The amplified genes were sublconed into pENTR/D/TEV (Life Technologies) and subsequently transferred by Gateway™ attL×attR recombination to pDEST8 baculvirus expression vector (Life Technologies).
Protein Expression. Recombinant baculovirus and Baculovirus-Infected Insect Cells (BIIC) were generated according to Bac-to-Bac kit instructions (Life Technologies) and Wasilko, 2006, respectively. Protein over-expression was accomplished by infecting exponentially growing Spodoptera frugiperda (SF9) cell culture at 1.2×10^6cell/ml with a 5000 fold dilution of BIIC stock. Infections were carried out at 27° C. for 72 hours, harvested by centrifugation, and stored at −80° C. for purification.
Protein Purification. […] Flag-PRMT5/6His-MeP50 was eluted with 300 mM Imidazole in the same buffer. The purity of recovered protein was 87%. Reference: Wasilko, D. J. and S. E. Lee: “TIPS: titerless infected-cells preservation and scale-up” Bioprocess J., 5 (2006), pp. 29-32.
General Procedure for PRMT5/MEP50 Enzyme Assays on Peptide Substrates. The assays were all performed in a buffer consisting of 20 mM Bicine (pH=7.6), 1 mM TCEP, 0.005% BSG, and 0.002% Tween20, prepared on the day of use. Compounds in 100% DMSO (1 ul) were spotted into a polypropylene 384-well V-bottom plates (Greiner) using a Platemate Plus outfitted with a 384-channel head (Thermo Scientific). DMSO (1 ul) was added to Columns 11, 12, 23, 24, rows A-H for the maximum signal control and 1 ul of SAH, a known product and inhibitor of PRMT5/MEP50, was added to columns 11, 12, 23, 24, rows I-P for the minimum signal control. A cocktail (40 ul) containing the PRMT5/MEP50 enzyme and the peptide was added by Multidrop Combi (Thermo-Fisher). The compounds were allowed to incubate with PRMT5/MEP50 for 30 min at 25 degrees Celsius, then a cocktail (10 ul) containing ^3H-SAM was added to initiate the reaction (final volume=51 ul). The final concentrations of the components were as follows: PRMT5/MEP50 was 4 nM, ^3H-SAM was 75 nM, peptide was 40 nM, SAH in the minimum signal control wells was 100 uM, and the DMSO concentration was […]. The assays were stopped by the addition of non-radioactive SAM (10 ul) to a final concentration of 600 uM, which dilutes the ^3H-SAM to a level where its incorporation into the peptide substrate is no longer detectable. 50 ul of the reaction in the 384-well polypropylene plate was then transferred to a 384-well Flashplate and the biotinylated peptides were allowed to bind to the streptavidin surface for at least 1 hour before being washed three times with 0.1% Tween20 in a Biotek ELx405 plate washer. […]

T1 sequence (O14744 with tags, fused parts or gaps): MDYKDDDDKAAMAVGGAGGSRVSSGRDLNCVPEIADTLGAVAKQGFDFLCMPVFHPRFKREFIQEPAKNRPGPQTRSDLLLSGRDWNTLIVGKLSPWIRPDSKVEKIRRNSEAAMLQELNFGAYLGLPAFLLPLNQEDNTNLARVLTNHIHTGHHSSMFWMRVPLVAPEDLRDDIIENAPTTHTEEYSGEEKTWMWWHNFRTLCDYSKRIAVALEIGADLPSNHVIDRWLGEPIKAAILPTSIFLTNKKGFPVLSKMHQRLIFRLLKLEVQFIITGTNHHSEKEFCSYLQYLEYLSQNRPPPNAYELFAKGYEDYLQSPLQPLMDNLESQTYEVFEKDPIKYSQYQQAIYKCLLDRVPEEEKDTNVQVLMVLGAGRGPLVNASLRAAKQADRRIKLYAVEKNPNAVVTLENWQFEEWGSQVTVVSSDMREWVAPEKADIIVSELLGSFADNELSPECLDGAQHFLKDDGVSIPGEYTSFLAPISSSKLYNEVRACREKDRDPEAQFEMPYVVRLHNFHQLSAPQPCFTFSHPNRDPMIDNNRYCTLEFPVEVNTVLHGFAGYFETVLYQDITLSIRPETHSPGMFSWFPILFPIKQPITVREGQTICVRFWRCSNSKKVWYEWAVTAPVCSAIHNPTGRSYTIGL
T1 sequence (Q9BQA1 with tags, fused parts or gaps partner): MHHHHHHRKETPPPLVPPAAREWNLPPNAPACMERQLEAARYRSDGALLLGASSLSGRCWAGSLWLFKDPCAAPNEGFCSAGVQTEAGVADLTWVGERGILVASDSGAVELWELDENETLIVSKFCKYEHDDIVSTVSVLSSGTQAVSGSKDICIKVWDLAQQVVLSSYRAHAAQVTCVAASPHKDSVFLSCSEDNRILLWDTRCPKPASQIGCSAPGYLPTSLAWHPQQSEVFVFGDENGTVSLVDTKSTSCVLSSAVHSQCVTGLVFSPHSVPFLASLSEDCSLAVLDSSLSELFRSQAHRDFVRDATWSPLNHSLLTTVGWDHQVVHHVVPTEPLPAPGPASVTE

SMILES | IC50 [nM]
O=C(NC1CCOCC1)c1cccc(NCC(O)CN2CCc3ccccc3C2)c1 (stereo not drawn) [Compound 79] | 10000 to 40000
CC1c2ccccc2CCN1CC(O)COc1cccc(-c2ccc3ncn(C)c3c2)c1 (stereo not drawn) [Compound 80] | 101 to 1000
CC(C)n1cnc2ccc(-c3cccc(OCC(O)CN4CCc5ccccc5C4)c3)cc21 (stereo not drawn) [Compound 81] | 101 to 1000
COc1ccc(Cn2cnc3ccc(-c4cccc(OCC(O)CN5CCc6ccccc6C5)c4)cc32)cc1 (stereo not drawn) [Compound 82, 1-(3,4-dihydroisoquinolin-2(1H)-yl)-3-(3-(1-(4-methoxybenzyl)-1H-benzo[d]imidazol-6-yl)phenoxy)propan-2-ol] | 101 to 1000
OC(COc1cccc(-c2ccc3c(c2)OCCO3)c1)CN1CCc2ccccc2C1 (stereo not drawn) [Compound 85, 1-(3-(2,3-dihydrobenzo[b][1,4]dioxin-6-yl)phenoxy)-3-(3,4-dihydroisoquinolin-2(1H)-yl)propan-2-ol] | 101 to 1000
OC(COc1cccc(-c2cccc3c2oc2ccccc23)c1)CN1CCc2ccccc2C1 (stereo not drawn) [Compound 86, 1-(3-(dibenzo[b,d]furan-4-yl)phenoxy)-3-(3,4-dihydroisoquinolin-2(1H)-yl)propan-2-ol] | 101 to 1000
OC(COc1cccc(-c2cccc(C(F)(F)F)c2)c1)CN1CCc2ccccc2C1 (stereo not drawn) [Compound 87] | 1000 to 10000
COc1ccc(-c2cccc(OCC(O)CN3CCc4ccccc4C3)c2)c(Cl)c1 (stereo not drawn) [Compound 88] | 101 to 1000
COc1ccc(-c2cccc(OCC(O)CN3CCc4ccccc4C3)c2)c(C)c1 (stereo not drawn) [Compound 90] | 101 to 1000
OC(COc1cccc(-c2ccccc2Cl)c1)CN1CCc2ccccc2C1 (stereo not drawn) [Compound 92] | 101 to 1000
N#Cc1ccccc1-c1cccc(OCC(O)CN2CCc3ccccc3C2)c1 (stereo not drawn) [Compound 93] | 101 to 1000
OC(COc1cccc(-c2ccccn2)c1)CN1CCc2ccccc2C1 (stereo not drawn) [Compound 98] | 1000 to 10000
CN(CC(O)CN1CCc2ccccc2C1)c1cccc(C(=O)NC2CCOCC2)c1 (stereo not drawn) [Compound 99] | 10000 to 40000
COc1cccc2c1CN(CC(O)COc1cccc(-c3ccc4ncn(C)c4c3)c1)CC2 (stereo not drawn) [Compound 100] | 1000 to 10000
CC1CN(CC(O)COc2cccc(-c3ccc4ncn(C)c4c3)c2)Cc2ccccc21 (stereo not drawn) [Compound 101] | 1000 to 10000
OC(COc1cccc(-c2ccc3ncn(C4CCOCC4)c3c2)c1)CN1CCc2ccccc2C1 (stereo not drawn) [Compound 103, 1-(3,4-dihydroisoquinolin-2(1H)-yl)-3-(3-(1-(tetrahydro-2H-pyran-4-yl)-1H-benzo[d]imidazol-6-yl)phenoxy)propan-2-ol] | 101 to 1000
OC(COc1cccc(-c2ccc3ncn(-c4ccccc4)c3c2)c1)CN1CCc2ccccc2C1 (stereo not drawn) [Compound 104, 1-(3,4-dihydroisoquinolin-2(1H)-yl)-3-(3-(1-phenyl-1H-benzo[d]imidazol-6-yl)phenoxy)propan-2-ol] | 101 to 1000
O=c1[nH]c2ccc(-c3cccc(OCC(O)CN4CCc5ccccc5C4)c3)cc2[nH]1 (stereo not drawn) [Compound 109, 5-(3-(3-(3,4-dihydroisoquinolin-2(1H)-yl)-2-hydroxypropoxy)phenyl)-1H-benzo[d]imidazol-2(3H)-one] | 101 to 1000
COc1cc(Cl)cc(-c2cccc(OCC(O)CN3CCc4ccccc4C3)c2)c1 (stereo not drawn) [Compound 110] | 101 to 1000
N#CCc1cccc(-c2cccc(OCC(O)CN3CCc4ccccc4C3)c2)c1 (stereo not drawn) [Compound 111] | 101 to 1000
Cn1cc2ccc(-c3cccc(OCC(O)CN4CCc5ccccc5C4)c3)cc2n1 (stereo not drawn) [Compound 114] | 101 to 1000
Cn1cc2cc(-c3cccc(OCC(O)CN4CCc5ccccc5C4)c3)ccc2n1 (stereo not drawn) [Compound 115] | 1000 to 10000
Cn1cnc2ccc(-c3cccc(NCC(O)CN4CCc5ccccc5C4)n3)cc21 (stereo not drawn) [Compound 117, 1-(3,4-Dihydroisoquinolin-2(1H)-yl)-3-((6-(1-methyl-1H-benzo[d]imidazol-6-yl)pyridin-2-yl)amino)propan-2-ol] | 101 to 1000
Cn1cnc2ccc(-c3ccnc(NCC(O)CN4CCc5ccccc5C4)n3)cc21 (stereo not drawn) [Compound 119] | 101 to 1000
Cn1cnc2ccc(-c3nccc(NCC(O)CN4CCc5ccccc5C4)n3)cc21 (stereo not drawn) [Compound 120, 1-(3,4-dihydroisoquinolin-2(1H)-yl)-3-((2-(1-methyl-1H-benzo[d]imidazol-6-yl)pyrimidin-4-yl)amino)propan-2-ol] | 1000 to 10000
Cn1cnc2ccc(-c3cncc(NCC(O)CN4CCc5ccccc5C4)n3)cc21 (stereo not drawn) [Compound 121, 1-(3,4-dihydroisoquinolin-2(1H)-yl)-3-((6-(1-methyl-1H-benzo[d]imidazol-6-yl)pyrazin-2-yl)amino)propan-2-ol] | 101 to 1000
CC1Cc2ccccc2CN1CC(O)COc1cccc(-c2ccc3ncn(C)c3c2)c1 (stereo not drawn) [Compound 122] | 1000 to 10000
OC(COc1cccc(-c2ccc(C(F)(F)F)cc2C(F)(F)F)c1)CN1CCc2ccccc2C1 (stereo not drawn) [Compound 124] | 101 to 1000
O=C(c1cccc(-c2cccc(OCC(O)CN3CCc4ccccc4C3)c2)c1)N1CCOCC1 (stereo not drawn) [Compound 126, (3′-(3-(3,4-dihydroisoquinolin-2(1H)-yl)-2-hydroxypropoxy)-[1,1′-biphenyl]-3-yl)(morpholino)methanone] | 101 to 1000
OC(COc1cccc(-c2ccc(C(F)(F)F)cc2Cl)c1)CN1CCc2ccccc2C1 (stereo not drawn) [Compound 127] | 101 to 1000

Next, values leading:

IC50 [nM] | SMILES
101 to 1000 | COc1cccc(-c2cccc(OCC(O)CN3CCc4ccccc4C3)c2)c1 (stereo not drawn) [Compound 74]
101 to 1000 | COc1ccc(-c2cccc(OCC(O)CN3CCc4ccccc4C3)c2)cc1 (stereo not drawn) [Compound 75, 1-(3,4-dihydroisoquinolin-2(1H)-yl)-3-((4′-methoxy-[1,1′-biphenyl]-3-yl)oxy)propan-2-ol]
1000 to 10000 | OC(COc1cccc(-c2cncc(F)c2)c1)CN1CCc2ccccc2C1 (stereo not drawn) [Compound 76]
1000 to 10000 | OC(COc1cccc(-c2ccc(F)cc2)c1)CN1CCc2ccccc2C1 (stereo not drawn) [Compound 77]
1000 to 10000 | Cc1ccc(-c2cccc(OCC(O)CN3CCc4ccccc4C3)c2)cn1 (stereo not drawn) [Compound 78]
101 to 1000 | OC(COc1cccc(-c2ccc3nc[nH]c3c2)c1)CN1CCc2ccccc2C1 (stereo not drawn) [Compound 83]
101 to 1000 | OC(COc1cccc(-c2cnc3ccccc3c2)c1)CN1CCc2ccccc2C1 (stereo not drawn) [Compound 89, 1-(3,4-dihydroisoquinolin-2(1H)-yl)-3-(3-(quinolin-3-yl)phenoxy)propan-2-ol]
1000 to 10000 | OC(COc1cccc(-c2cccc(Cl)c2)c1)CN1CCc2ccccc2C1 (stereo not drawn) [Compound 91]
101 to 1000 | N#Cc1ccc(-c2cccc(OCC(O)CN3CCc4ccccc4C3)c2)cc1 (stereo not drawn) [Compound 94]
101 to 1000 | Oc1cccc(-c2cccc(OCC(O)CN3CCc4ccccc4C3)c2)c1 (stereo not drawn) [Compound 95]
1000 to 10000 | Oc1ccc(-c2cccc(OCC(O)CN3CCc4ccccc4C3)c2)cc1 (stereo not drawn) [Compound 96]
1000 to 10000 | OC(COc1cccc(-c2ccncc2)c1)CN1CCc2ccccc2C1 (stereo not drawn) [Compound 97]
101 to 1000 | OC(COc1cccc(-c2ccc3[nH]ncc3c2)c1)CN1CCc2ccccc2C1 (stereo not drawn) [Compound 107]
101 to 1000 | Cc1ccncc1-c1cccc(OCC(O)CN2CCc3ccccc3C2)c1 (stereo not drawn) [Compound 113, 1-(3,4-dihydroisoquinolin-2(1H)-yl)-3-(3-(4-methylpyridin-3-yl)phenoxy)propan-2-ol]
101 to 1000 | CN(C)c1ncc(-c2cccc(OCC(O)CN3CCc4ccccc4C3)c2)cn1 (stereo not drawn) [Compound 125, 1-(3,4-dihydroisoquinolin-2(1H)-yl)-3-(3-(2-(dimethylamino)pyrimidin-5-yl)phenoxy)propan-2-ol]
